This note sets out measurements from patent US20090247420A1, “METHOD FOR ENCODING AND SCREENING COMBINATORIAL LIBRARIES” (priority 2005, published 2009).

In series [1] the target is T1, ImmunoPure avidin (Pierce) outfitted with xanthone ET-sensitizer (Gallus gallus, UniProt P02701).
T1 construct: purchased Pierce
The series is described as follows: Photolytic tag-release binding screen of the tag-encoded model mini-library with avidin-xanthone conjugate in DPC micelles, GCMS detection of released dithiane tags. Conditions: for dithiane tags encoding the library member detected in the GCMS chromatogram after the photolytic assay: dithiane-aldehyde adduct tags, 0.7 mM each tagged library member, 23 μM protein, 155 mM DPC, incubated 1 hour, irradiated 4 hours, 335 nm long pass filter, hexane extract. Here is the method: The receptor, ImmunoPure® avidin (Pierce), was outfitted with xanthone as an ET-sensitizer. The N-hydroxysuccinimide ester of 11-(xanthone-2-carboxamido)undecanoic acid was coupled to avidin in a 20 mM sodium phosphate buffer according to a described procedure (Wilchek, Methods Enzymol), with subsequent purification on a Sephadex G-25 column. […] Tethering the xanthone-based sensitizer to avidin is no different from outfitting a receptor with a fluorophore for the conventional on-the-bead fluorescence-guided assays.
The screening volume was compartmentalized with micellar detergent, dodecyl phosphocholine (DPC), preventing indiscriminant collisional quenching of avidin-tethered xanthone by unbound molecules and thus limiting the ET sensitization exclusively to the bound host-guest complex. Besides the fact that amphiphiles displaying phosphocholine are common in biological settings, utilization of DPC micelles offers a number of additional benefits: (i) it ensures that the screening is always compatible with aqueous media, regardless of aqueous solubility of the tested libraries; (ii) it allows the design of the tagging system to be centered around readily available hydrophobic alkyl dithianes, which can be selectively extracted after irradiation with hexane or other non-polar solvents for unobstructed GCMS analysis; (iii) it spatially segregates the photofragmentation chemistry from molecular recognition, eliminating potential interference between them; (iv) it restricts the photochemistry to the micelle interior improving quantum efficiency of fragmentation, as it is known to increase in the non-polar environment; and, finally, (v) the micelle-assisted design offers an option of solubilizing certain target proteins, which are not water soluble. While not an issue with avidin, this functionality may be important in assaying insoluble membrane proteins, as recognized in the art.
A typical screening procedure involved solubilization of the mini-library, approximately 0.5 mg per tagged compound, in a 0.6 mL aqueous solution containing 60 mg of DPC. To this clear micellar solution 0.5 mL of avidin-xanthone conjugate was added, so the final concentrations were 0.7 mM of each library member carrying one tag (6.3 mM total), 23 μM protein and 155 mM DPC. The micelle-embedded molecules had apparent translational diffusion coefficients of 7×10^−7 cm^2s^−1, as measured with spin-echo pulse field gradient (PFG) ^1H NMR. […] Then the mixture was extracted with 0.5 mL of hexane, concentrated to 100 μL and analyzed by GCMS.
The generality of this approach is not limited to the tagging assemblies based on dithiane-aldehyde adducts. […] None of the other six dithianes were detected in the hexane extract after irradiation. […]

Series [2] is described as follows: Benzophenone-sensitized photofragmentation of triazole 22 and its photostability without sensitizer. The class given is physicochemical. Here is the method: To this end 3a was coupled with propargyl amine, providing the acetylenic tagging component S20 for the azide-acetylene click pair. Another readily available tag series was prepared from commercially available acetylenic benzaldehyde as shown in Scheme 12. The Staudinger ligation produces the benzamide linkage, found in compounds 4, 6 and 10, for example. Acetylene-azide click chemistry yields triazoles. […] Triazole 22 was unchanged after prolonged irradiation in the absence of the ET-sensitizer, showing no self-cleavage at wavelengths above 330 nm. This is a critically important finding because premature self-cleavage is detrimental to screening, as it produces false positives.

T1 sequence (P02701 25-152): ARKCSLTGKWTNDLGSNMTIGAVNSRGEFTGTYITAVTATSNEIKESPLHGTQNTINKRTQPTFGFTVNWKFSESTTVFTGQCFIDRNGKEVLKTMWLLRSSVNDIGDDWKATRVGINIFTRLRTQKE

As for `NCCCCCCCCCCC(=O)O` [aminoundecanoic acid, 11-aminoundecanoic acid], the “dithiane tags encoding the library member detected in the GCMS chromatogram after the photolytic assay” value in series [1] is reported as “not discernible at all”.

Consider `O=C(O)CCCC[C@@H]1SC[C@@H]2NC(=O)N[C@@H]21` [biotin], for which the “dithiane tags encoding the library member detected in the GCMS chromatogram after the photolytic assay” value in series [1] is “detected”. Further, the “dithianes encoding the library member detected in the GCMS trace of the hexane extract after irradiation” value in series [1] (mini-library tagged with nine thio ortho esters (19), three tags per member, DPC micellar solution, avidin-xanthone conjugate) is “showed only the dithianes encoding biotin”.

Consider `COC(=O)CCCCCCCCCn1cc(-c2ccc(C(O)C3(C)SCCCS3)cc2)nn1` (stereo not drawn) [compound 22], for which the “stability to irradiation (self-cleavage)” value in series [2] (prolonged irradiation in the absence of the ET-sensitizer, wavelengths above 330 nm) is given as “unchanged”. In addition, the “quantum efficiency of methyl dithiane release” value in series [2] (upon benzophenone sensitization, compared with the parent (unsubstituted) benzaldehyde adduct) is “very similar to the parent (unsubstituted) benzaldehyde adduct”.

As for `N[C@H]1C(O)O[C@H](CO)[C@@H](O)[C@@H]1O` (stereo partly drawn) [glucosamine], the “dithiane tags encoding the library member detected in the GCMS chromatogram after the photolytic assay” value in series [1] was “not discernible at all”.
